± gives the expanded uncertainty stated by the source.
Conditions: Liquid, Ebulliometric method (Recirculating still)

| SMILES | vapor or sublimation pressure (314 K) [kPa] | vapor or sublimation pressure (317 K) [kPa] | vapor or sublimation pressure (320 K) [kPa] | vapor or sublimation pressure (323 K) [kPa] | vapor or sublimation pressure (326 K) [kPa] | vapor or sublimation pressure (329 K) [kPa] | vapor or sublimation pressure (332 K) [kPa] | vapor or sublimation pressure (335 K) [kPa] | vapor or sublimation pressure (338 K) [kPa] | vapor or sublimation pressure (315 K) [kPa] | vapor or sublimation pressure (318 K) [kPa] | vapor or sublimation pressure (321 K) [kPa] | vapor or sublimation pressure (324 K) [kPa] | vapor or sublimation pressure (327 K) [kPa] | vapor or sublimation pressure (330 K) [kPa] | vapor or sublimation pressure (333 K) [kPa] | vapor or sublimation pressure (336 K) [kPa] | vapor or sublimation pressure (339 K) [kPa] | vapor or sublimation pressure (342 K) [kPa] | vapor or sublimation pressure (345 K) [kPa] |
| --- | --- | --- | --- | --- | --- | --- | --- | --- | --- | --- | --- | --- | --- | --- | --- | --- | --- | --- | --- | --- |
| CC(C)=O [acetone] | 57.96 ± 0.47 | 64.95 ± 0.49 | 72.6 ± 0.54 | 80.96 ± 0.58 | 90.08 ± 0.64 | 100 ± 0.69 | 110.78 ± 0.75 | 122.47 ± 0.81 | 135.11 ± 0.85 | – | – | – | – | – | – | – | – | – | – | – |
| CO [methanol] | – | – | – | – | – | – | – | – | – | 38.33 ± 0.38 | 43.97 ± 0.4 | 50.29 ± 0.45 | 57.36 ± 0.5 | 65.25 ± 0.56 | 74.02 ± 0.62 | 83.76 ± 0.68 | 94.55 ± 0.76 | 106.47 ± 0.84 | 119.61 ± 0.92 | 134.07 ± 0.96 |
